Experimental data from patent US20250163032A1, “NOVEL MOLECULES AS INHIBITORS OF DNA DAMAGE REPAIR PATHWAY” (VRise Therapeutics, Inc., priority 2023, published 2025).
pIC50: −log10 of the molar value.

Experiments:
MD-MBA-436 = experiment: Cell viability assay (CTG assay); assay type: cell-based, human; settings: 7th day
Experimental: Test 5: Cell Viability Assay (CTG Assay):
Growth inhibition assays was carried out using […] supplemented media. Cells were seeded at a desired concentration of 1000-6,000 cells/well in a well plate with desired number of wells. Test compounds at a desired concentration range were added after 24 hours. Growth was assessed using the Cell Titer-Glo (CTG, Cell Signaling) for measuring reduction at 7th day after the addition of test compound chemiluminescence values were read by a plate reader. Data was be analysed and percent inhibition and/or IC50 for each test compound is calculated accordingly.

USP1/UAF1 = USP1/UAF1 (Homo sapiens, UniProt O94782); experiment: USP1/UAF 1 assay (ubiquitin-rhodamine110 fluorometric deubiquitinase assay); assay type: biochemical; settings: for inhibition at 1 µM: read-out: Biochemical assay % inhibition @1 μM; for pIC50: 1 nM USP1/UAF1, 150 nM Ub-Rho, read-out: Biochemical assay IC50
Experimental: Test-1: USP1/UAF 1 Assay:
Deubiquitinase activity of USP1/UAF1 was monitored in a fluorometric assay using ubiquitin-rhodamine110 as substrate. Briefly, enzymatic reactions were conducted in an assay buffer composed of 50 mM HEPES, pH 7.8, 0.5 mM EDTA, 100 mM NaCl, 1 mM TCEP, 0.1 mg/mL BSA, and 0.01% Tween-20 that contained 1 nM USP1/UAF1. Compounds were tested at desired concentrations. The plates were incubated for 15 min to attain equilibrium, and then the enzymatic reaction was initiated by dispensing 150 nM Ub-Rho solution. Fluorescence measurement was performed in a high throughput CCD imager, where kinetic measurements of rhodamine fluorescence were acquired using a 480 nm excitation/540 nm emission filter set. The change in fluorescence intensity over a 5-minute reaction period (typically associated with less than 10% substrate conversion) was normalized against no-inhibitor and no-enzyme controls and the resulting percent inhibition data were fitted to a sigmoidal dose response using a four-parameter Hill equation. Data was be analysed and percent inhibition and/or IC50 for each test compound is calculated accordingly.

[1] = Metabolic stability, mouse liver microsomes; assay type: in vitro ADME; settings: pH 7.4, 1 μM test item, 1 mM NADPH, 60 minutes
Experimental: (§1) Test-8: Metabolic Stability
(§2) Metabolic stability studies were conducted using mouse, rat, and human liver microsomes. The protocol for the studies with mouse and human liver microsomes (Gibco-Thermo) is provided below.
(§3) In brief, 0.25 mg protein was preincubated in phosphate buffer (pH˜7.4) for 5 min at 37° C. and then added with 1 μM test item followed by addition of 1 mM NADPH (cof actor) and incubated further over a period 60 minutes in duplicate. The reaction mixture was terminated with acetonitrile containing an internal standard and centrifuged further to analyse the test item remaining in the supernatant by LC-MS/MS at different intervals. The percent parent compound remaining was calculated in comparison with similar samples terminated at 0 minutes.

[2] = Metabolic stability, human liver microsomes; assay type: in vitro ADME; settings: pH 7.4, 1 μM test item, 1 mM NADPH, 60 minutes
Experimental: as §1, §2, §3

Sequence of USP1/UAF1 (O94782 whole entry): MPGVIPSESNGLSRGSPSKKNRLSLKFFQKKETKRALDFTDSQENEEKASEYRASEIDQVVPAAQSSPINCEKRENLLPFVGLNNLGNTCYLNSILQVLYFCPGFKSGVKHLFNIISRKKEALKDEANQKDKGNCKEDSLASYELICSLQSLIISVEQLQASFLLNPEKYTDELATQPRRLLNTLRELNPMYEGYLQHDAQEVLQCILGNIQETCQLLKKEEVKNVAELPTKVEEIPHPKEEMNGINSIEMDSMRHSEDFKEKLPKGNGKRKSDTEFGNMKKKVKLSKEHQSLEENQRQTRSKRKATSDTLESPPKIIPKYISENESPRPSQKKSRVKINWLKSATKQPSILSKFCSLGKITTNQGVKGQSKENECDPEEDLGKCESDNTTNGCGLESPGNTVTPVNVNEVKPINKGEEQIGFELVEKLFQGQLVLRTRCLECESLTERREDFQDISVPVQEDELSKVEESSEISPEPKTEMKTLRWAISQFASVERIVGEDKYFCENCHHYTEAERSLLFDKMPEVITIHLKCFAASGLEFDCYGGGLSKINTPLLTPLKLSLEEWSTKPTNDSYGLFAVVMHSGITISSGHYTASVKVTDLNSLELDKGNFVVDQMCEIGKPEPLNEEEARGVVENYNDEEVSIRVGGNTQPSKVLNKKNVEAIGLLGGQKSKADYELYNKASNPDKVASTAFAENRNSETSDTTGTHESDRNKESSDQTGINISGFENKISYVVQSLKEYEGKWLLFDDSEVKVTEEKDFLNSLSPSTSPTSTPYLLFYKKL
Sequence of USP1/UAF1 (Q8TAF3 whole entry partner): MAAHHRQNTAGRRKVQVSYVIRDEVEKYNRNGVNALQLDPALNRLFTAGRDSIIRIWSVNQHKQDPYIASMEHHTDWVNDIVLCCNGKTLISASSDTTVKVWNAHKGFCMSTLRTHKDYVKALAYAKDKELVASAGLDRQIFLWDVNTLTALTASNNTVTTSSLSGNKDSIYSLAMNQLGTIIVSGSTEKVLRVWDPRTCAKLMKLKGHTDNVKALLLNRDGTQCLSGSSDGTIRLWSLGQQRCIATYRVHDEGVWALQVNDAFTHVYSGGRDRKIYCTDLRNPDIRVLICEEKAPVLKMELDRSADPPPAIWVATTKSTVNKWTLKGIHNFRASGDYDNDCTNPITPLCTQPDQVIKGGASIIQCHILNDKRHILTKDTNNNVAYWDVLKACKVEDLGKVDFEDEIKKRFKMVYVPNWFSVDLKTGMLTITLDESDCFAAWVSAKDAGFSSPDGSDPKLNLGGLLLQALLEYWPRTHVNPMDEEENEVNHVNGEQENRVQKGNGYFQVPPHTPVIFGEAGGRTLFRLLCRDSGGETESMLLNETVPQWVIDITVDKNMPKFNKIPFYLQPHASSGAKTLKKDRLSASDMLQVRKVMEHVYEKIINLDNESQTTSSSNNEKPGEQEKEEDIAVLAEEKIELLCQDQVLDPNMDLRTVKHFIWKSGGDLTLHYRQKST

**Q.** With `COc1ncnc(C2CC2)c1-c1nc(NCc2ccc(-c3nc(C(F)(F)F)cn3C)cc2)c2ncn(C3CCCCO3)c2n1` (stereo not shown) [Example 19, 2-(4-cyclopropyl-6-methoxypyrimidin-5-yl)-N-(4-(1-methyl-4-(trifluoromethyl)-1H-imidazol-2-yl)benzyl)-9-(tetrahydro-2H-pyran-2-yl)-9H-purin-6-amine] as the compound, how does the inhibition at 10 µM (MD-MBA-436; Homo sapiens, @10 μM) read?
**A.** 75 to 100%

**Q.** And the inhibition at 1 µM (USP1/UAF1)?
**A.** 50 to 75%

**Q.** With `CC(C)c1ccccc1-c1nc(NCc2ccc(-c3nc(C(F)(F)F)cn3C)cc2)c2cccn2n1` [Example 5, 2-(2-isopropylphenyl)-N-(4-(1-methyl-4-(trifluoromethyl)-1H-imidazol-2-yl)benzyl)pyrrolo[2,1-f][1,2,4]triazin-4-amine] as the compound, how does the pIC50 (MD-MBA-436; Homo sapiens) read?
**A.** ≤ 6.00

**Q.** And the pIC50 (USP1/UAF1)?
**A.** > 7.30

**Q.** Which inhibition at 1 µM (USP1/UAF1) does the source give for `CC(C)c1ccccc1-c1nc2c(c(OCc3ccc(-c4nc(C(F)(F)F)cn4C(C)C)cc3)n1)CCC2` [Example 13, 4-((4-(1-isopropyl-4-(trifluoromethyl)-1H-imidazol-2-yl)benzyl)oxy)-2-(2-isopropylphenyl)-6,7-dihydro-5H-cyclopenta[d]pyrimidine] here?
**A.** 25 to 50%

**Q.** And the half-life at 1 μM [1]?
**A.** 9.76 min

**Q.** Which half-life at 1 μM [2] does the source give for `CC(C)c1ccccc1-c1nc2c(c(NCc3ccc(-c4nc(C(F)(F)F)cn4C(C)C)cc3)n1)CCC2` [Example 9, N-(4-(1-isopropyl-4-(trifluoromethyl)-1H-imidazol-2-yl)benzyl)-2-(2-isopropylphenyl)-6,7-dihydro-5H-cyclopenta[d]pyrimidin-4-amine] here?
**A.** 10.5 min

**Q.** And the pIC50 (USP1/UAF1)?
**A.** > 7.30

**Q.** Which inhibition at 10 µM (USP1/UAF1; read-out: Biochemical assay % inhibition @10 μM) does the source give for `COc1ncnc(C2CC2)c1-c1nc(NCc2ccc(-c3nc(C(F)(F)F)cn3C)cc2)c2ncn(C)c2n1` [Example 37, 2-(4-cyclopropyl-6-methoxypyrimidin-5-yl)-9-methyl-N-(4-(1-methyl-4-(trifluoromethyl)-1H-imidazol-2-yl)benzyl)-9H-purin-6-amine] here?
**A.** > 75%

**Q.** With `CC(C)c1ccccc1-c1nc(NCc2ccc(-c3nc(C(F)(F)F)cn3C)cc2)c2[nH]cnc2n1` [Example 15, 2-(2-isopropylphenyl)-N-(4-(1-methyl-4-(trifluoromethyl)-1H-imidazo-2-yl)benzyl)-7H-purin-6-amine] as the compound, how does the pIC50 (USP1/UAF1) read?
**A.** > 7.30

**Q.** Which half-life at 1 μM [1] does the source give for `COc1cccc(F)c1-c1nc(OCc2ccc(-c3nc(C(F)(F)F)cn3C)cc2)c2ncn(C3CCCCO3)c2n1` (stereo not shown) [Example 27, 2-(2-fluoro-6-methoxyphenyl)-6-((4-(1-methyl-4-(trifluoromethyl)-1H-imidazol-2-yl)benzyl)oxy)-9-(tetrahydro-2H-pyran-2-yl)-9H-purine] here?
**A.** 122 min

**Q.** Which “Biochemical assay % inhibition @1 μM” value (USP1/UAF1; @1 μM) does the source give for `CC(C)c1ccccc1-c1nc(NCc2ccc(-c3nc(C(F)(F)F)cn3C)cc2)c2ncn(C3CCCCO3)c2n1` (stereo not shown) [Example 18, 2-(2-isopropylphenyl)-N-(4-(1-methyl-4-(trifluoromethyl)-1H-imidazol-2-yl)benzyl)-9-(tetrahydro-2H-pyran-2-yl)-9H-purin-6-amine] here?
**A.** B+++

**Q.** With `COc1ncnc(C2CC2)c1-c1nc(NCc2ccc(-c3nc(C(F)(F)F)cn3C(C)C)cc2)c2cccn2n1` [Example 22, 2-(4-cyclopropyl-6-methoxypyrimidin-5-yl)-N-(4-(1-isopropyl-4-(trifluoromethyl)-1H-imidazol-2-yl)benzyl)pyrrolo[2,1-f][1,2,4]triazin-4-amine] as the compound, how does the pIC50 (MD-MBA-436; Homo sapiens) read?
**A.** 7.00 to 7.30

**Q.** What about the pIC50 (USP1/UAF1) of the same compound?
**A.** > 7.30

**Q.** With `CSc1ccc(-c2nc(NCc3ccc(-c4nc(C(F)(F)F)cn4C)cc3)c3[nH]cnc3n2)cc1` [Example 56, N-(4-(1-methyl-4-(trifluoromethyl)-1H-imidazol-2-yl)benzyl)-2-(4-(methylthio)phenyl)-7H-purin-6-amine] as the compound, how does the inhibition at 1 µM (USP1/UAF1) read?
**A.** 50 to 75%

**Q.** With `CC(C)c1ccccc1-c1nc2c(c(NCc3ccc(-c4nc(C(F)(F)F)cn4C)cc3)c1C#N)CCC2` [Example 20, 2-(2-isopropylphenyl)-4-((4-(1-methyl-4-(trifluoromethyl)-1H-imidazol-2-yl)benzyl)amino)-6,7-dihydro-5H-cyclopenta[b]pyridine-3-carbonitrile] as the compound, how does the pIC50 (USP1/UAF1) read?
**A.** 6.00 to 7.00

**Q.** With `CC(C)c1ccccc1-c1cc2nccn2c(NCc2ccc(-c3nc(C(F)(F)F)cn3C)cc2)n1` [Example 7, 7-(2-isopropylphenyl)-N-(4-(1-methyl-4-(trifluoromethyl)-1H-imidazol-2-yl)benzyl)imidazo[1,2-c]pyrimidin-5-amine] as the compound, how does the pIC50 (USP1/UAF1) read?
**A.** 6.00 to 7.00

**Q.** Which inhibition at 1 µM (USP1/UAF1) does the source give for `COc1ccc(-c2nc(NCc3ccc(-c4nc(C(F)(F)F)cn4C)cc3)c3[nH]cnc3n2)cc1OC` [Example 51, 2-(3,4-dimethoxyphenyl)-N-(4-(1-methyl-4-(trifluoromethyl)-1H-imidazol-2-yl)benzyl)-7H-purin-6-amine] here?
**A.** 50 to 75%

**Q.** With `CCOc1ccc(-c2nc3c(c(NCc4ccc(-c5nc(C(F)(F)F)cn5C)cc4)n2)CCC3)cn1` [Example 62, 2-(6-ethoxypyridin-3-yl)-N-(4-(1-methyl-4-(trifluoromethyl)-1H-imidazol-2-yl)benzyl)-6,7-dihydro-5H-cyclopenta[d]pyrimidin-4-amine] as the compound, how does the inhibition at 1 µM (USP1/UAF1) read?
**A.** 50 to 75%

**Q.** Which inhibition at 1 µM (USP1/UAF1) does the source give for `COc1ccc(-c2nc(NCc3ccc(-c4nc(C(F)(F)F)cn4C)cc3)c3[nH]cnc3n2)c(OC)c1` [Example 53, 2-(2,4-dimethoxyphenyl)-N-(4-(1-methyl-4-(trifluoromethyl)-1H-imidazol-2-yl)benzyl)-7H-purin-6-amine] here?
**A.** 50 to 75%

**Q.** Which inhibition at 1 µM (USP1/UAF1) does the source give for `Cn1cc(C(F)(F)F)nc1-c1ccc(CNc2nc(-c3ccc(C#N)cc3)nc3c2CCC3)cc1` [Example 63, 4-(4-((4-(1-methyl-4-(trifluoromethyl)-1H-imidazol-2-yl)benzyl)amino)-6,7-dihydro-5H-cyclopenta[d]pyrimidin-2-yl)benzonitrile] here?
**A.** 50 to 75%

**Q.** Which inhibition at 1 µM (USP1/UAF1) does the source give for `Cn1cc(C(F)(F)F)nc1-c1ccc(CNc2nc(-c3ccc(F)c(C#N)c3)nc3c2CCC3)cc1` [Example 60, 2-fluoro-5-(4-((4-(1-methyl-4-(trifluoromethyl)-1H-imidazol-2-yl)benzyl)amino)-6,7-dihydro-5H-cyclopenta[d]pyrimidin-2-yl)benzonitrile] here?
**A.** 50 to 75%

**Q.** With `Cn1cc(C(F)(F)F)nc1-c1ccc(CNc2nc(-c3cccc(C(N)=O)c3)nc3c2CCC3)cc1` [Example 72, 3-(4-((4-(1-methyl-4-(trifluoromethyl)-1H-imidazol-2-yl)benzyl)amino)-6,7-dihydro-5H-cyclopenta[d]pyrimidin-2-yl)benzamide] as the compound, how does the inhibition at 1 µM (USP1/UAF1) read?
**A.** 50 to 75%

**Q.** With `COc1cccc(-c2nc(NCc3ccc(-c4nc(C(F)(F)F)cn4C)cc3)c3[nH]cnc3n2)c1F` [Example 48, 2-(2-fluoro-3-methoxyphenyl)-N-(4-(1-methyl-4-(trifluoromethyl)-1H-imidazol-2-yl)benzyl)-7H-purin-6-amine] as the compound, how does the inhibition at 1 µM (USP1/UAF1) read?
**A.** 50 to 75%

**Q.** Which inhibition at 1 µM (USP1/UAF1) does the source give for `Cn1cc(C(F)(F)F)nc1-c1ccc(CNc2nc(-c3ccc(F)cc3F)nc3nc[nH]c23)cc1` [Example 40, 2-(2,4-difluorophenyl)-N-(4-(1-methyl-4-(trifluoromethyl)-1H-imidazol-2-yl)benzyl)-7H-purin-6-amine] here?
**A.** 50 to 75%

**Q.** For `Cn1cc(C(F)(F)F)nc1-c1ccc(CNc2nc(-c3cc(C(F)(F)F)ccc3F)nc3nc[nH]c23)cc1` [Example 44, 2-(2-fluoro-5-(trifluoromethyl)phenyl)-N-(4-(1-methyl-4-(trifluoromethyl)-1H-imidazol-2-yl)benzyl)-7H-purin-6-amine], which inhibition at 1 µM (USP1/UAF1) is on record?
**A.** 50 to 75%

**Q.** For `CC(C)n1cc(C(F)(F)F)nc1-c1ccc(CNc2nc(-c3c(OC(F)F)ncnc3C3CC3)nc3c2CCC3)cc1` [Example 11, 2-(4-cyclopropyl-6-(difluoromethoxy)pyrimidin-5-yl)-N-(4-(1-isopropyl-4-(trifluoromethyl)-1H-imidazol-2-yl)benzyl)-6,7-dihydro-5H-cyclopenta[d]pyrimidin-4-amine], which “MD-MBA-436 % inhibition@10 μM” value (MD-MBA-436; @10 μM) is on record?
**A.** A#

**Q.** What about the pIC50 (USP1/UAF1) of the same compound?
**A.** > 7.30

**Q.** What about the half-life at 1 μM [1] of the same compound?
**A.** 45.5 min

**Q.** For `COc1ccc(-c2nc3c(c(NCc4ccc(-c5nc(C(F)(F)F)cn5C)cc4)n2)CCC3)c(OC)c1` [Example 68, 2-(2,4-dimethoxyphenyl)-N-(4-(1-methyl-4-(trifluoromethyl)-1H-imidazol-2-yl)benzyl)-6,7-dihydro-5H-cyclopenta[d]pyrimidin-4-amine], which inhibition at 1 µM (USP1/UAF1) is on record?
**A.** 50 to 75%

**Q.** With `COc1ccc(-c2nc3c(c(NCc4ccc(-c5nc(C(F)(F)F)cn5C)cc4)n2)CCC3)cc1OC` [Example 69, 2-(3,4-dimethoxyphenyl)-N-(4-(1-methyl-4-(trifluoromethyl)-1H-imidazol-2-yl)benzyl)-6,7-dihydro-5H-cyclopenta[d]pyrimidin-4-amine] as the compound, how does the inhibition at 1 µM (USP1/UAF1) read?
**A.** 50 to 75%
